The source of these data is ChEMBL document CHEMBL3714716, “Modulators of the relaxin receptor 1” (2015).

Active and inactive are the calls of the source. No cut-off for these calls is given here.

Series [1] relates to Heart. Nature of the series: AUMClast in C57/BL6 mouse heart at 3 mg/kg, iv administered as single dose. Type of series: ADME, organism-based. The conditions noted are these: in vivo.
Series [2] has as its target T1, Uncharacterized protein (Sus scrofa) (UniProt F1RW91).
T1 sequence (whole entry): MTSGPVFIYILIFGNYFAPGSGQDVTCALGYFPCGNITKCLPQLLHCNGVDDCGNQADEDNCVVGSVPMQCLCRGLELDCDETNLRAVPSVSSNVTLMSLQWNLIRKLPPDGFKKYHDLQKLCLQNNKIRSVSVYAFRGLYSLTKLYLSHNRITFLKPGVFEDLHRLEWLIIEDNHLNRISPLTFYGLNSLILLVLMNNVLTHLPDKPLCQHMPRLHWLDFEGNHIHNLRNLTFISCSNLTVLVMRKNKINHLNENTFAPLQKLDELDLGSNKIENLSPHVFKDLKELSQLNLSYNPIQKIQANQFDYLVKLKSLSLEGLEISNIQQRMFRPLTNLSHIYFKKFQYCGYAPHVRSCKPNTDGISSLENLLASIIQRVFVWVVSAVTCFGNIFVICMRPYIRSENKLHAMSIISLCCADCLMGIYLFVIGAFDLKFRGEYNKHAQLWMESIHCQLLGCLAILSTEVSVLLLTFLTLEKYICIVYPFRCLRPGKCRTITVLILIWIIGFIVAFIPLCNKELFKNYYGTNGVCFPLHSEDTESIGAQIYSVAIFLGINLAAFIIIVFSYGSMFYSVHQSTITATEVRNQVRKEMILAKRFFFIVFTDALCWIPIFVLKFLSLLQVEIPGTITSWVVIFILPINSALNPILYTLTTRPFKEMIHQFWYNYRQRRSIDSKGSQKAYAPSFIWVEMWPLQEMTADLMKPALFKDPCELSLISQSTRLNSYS
Nature of the series: Agonist activity at pig RXFP1 receptor assessed as stimulation of cAMP production incubated for 30 mins by TR-FRET based HTRF assay. Type of series: functional. On the technique in general: cAMP levels reflect the balance of adenylyl cyclase and phosphodiesterase activity.

Series [3] is described as follows: Cmax in C57/BL6 mouse plasma at 30 mg/kg, po administered as single dose. Format: ADME, organism-based. On the set-up: dose 30 mg/kg, route oral.
Series [4] deals with T2, Relaxin receptor 1 (Mus musculus) (UniProt Q6R6I7).
T2 sequence (whole entry): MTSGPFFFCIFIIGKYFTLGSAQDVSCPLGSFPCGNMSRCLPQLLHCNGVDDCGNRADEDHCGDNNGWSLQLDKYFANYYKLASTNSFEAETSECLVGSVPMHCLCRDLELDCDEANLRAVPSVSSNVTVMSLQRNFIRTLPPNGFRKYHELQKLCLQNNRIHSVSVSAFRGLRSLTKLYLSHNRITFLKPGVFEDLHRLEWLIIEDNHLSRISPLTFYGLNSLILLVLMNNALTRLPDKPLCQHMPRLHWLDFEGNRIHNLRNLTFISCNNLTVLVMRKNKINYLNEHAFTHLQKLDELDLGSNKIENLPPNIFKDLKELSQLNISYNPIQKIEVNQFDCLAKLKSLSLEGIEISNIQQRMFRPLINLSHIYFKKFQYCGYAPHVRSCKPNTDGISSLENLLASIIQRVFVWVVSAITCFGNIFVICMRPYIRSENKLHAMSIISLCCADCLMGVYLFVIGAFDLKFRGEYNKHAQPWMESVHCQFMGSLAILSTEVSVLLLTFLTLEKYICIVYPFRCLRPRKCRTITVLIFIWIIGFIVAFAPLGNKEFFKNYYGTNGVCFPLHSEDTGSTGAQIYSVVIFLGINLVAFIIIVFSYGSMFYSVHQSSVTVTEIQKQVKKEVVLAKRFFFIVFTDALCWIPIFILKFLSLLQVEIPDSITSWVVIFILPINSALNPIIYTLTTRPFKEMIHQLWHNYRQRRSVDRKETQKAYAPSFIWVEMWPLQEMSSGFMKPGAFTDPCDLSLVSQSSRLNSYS
Nature of the series: Agonist activity at mouse RXFP1 receptor M10 Ile646Val and Leu647Val mutant expressed in HEK293 cells assessed as stimulation of cAMP production incubated for 30 mins by TR-FRET based HTRF assay. Type of series: functional, cell-based.

Series [5] deals with Plasma. The experiment in a line: AUMClast in C57/BL6 mouse plasma at 3 mg/kg, iv administered as single dose. Format: ADME, organism-based. The conditions noted are these: in vivo.
For series [6], the target named is T2, Relaxin receptor 1 (Mus musculus). The experiment in a line: Agonist activity at mouse RXFP1 receptor expressed in HEK293 cells assessed as stimulation of cAMP production incubated for 30 mins by TR-FRET based HTRF assay. Type of series: functional, cell-based.
In series [7] the target is T3, Relaxin receptor 1 (Macaca mulatta) (UniProt I2CTQ4).
T3 sequence (whole entry): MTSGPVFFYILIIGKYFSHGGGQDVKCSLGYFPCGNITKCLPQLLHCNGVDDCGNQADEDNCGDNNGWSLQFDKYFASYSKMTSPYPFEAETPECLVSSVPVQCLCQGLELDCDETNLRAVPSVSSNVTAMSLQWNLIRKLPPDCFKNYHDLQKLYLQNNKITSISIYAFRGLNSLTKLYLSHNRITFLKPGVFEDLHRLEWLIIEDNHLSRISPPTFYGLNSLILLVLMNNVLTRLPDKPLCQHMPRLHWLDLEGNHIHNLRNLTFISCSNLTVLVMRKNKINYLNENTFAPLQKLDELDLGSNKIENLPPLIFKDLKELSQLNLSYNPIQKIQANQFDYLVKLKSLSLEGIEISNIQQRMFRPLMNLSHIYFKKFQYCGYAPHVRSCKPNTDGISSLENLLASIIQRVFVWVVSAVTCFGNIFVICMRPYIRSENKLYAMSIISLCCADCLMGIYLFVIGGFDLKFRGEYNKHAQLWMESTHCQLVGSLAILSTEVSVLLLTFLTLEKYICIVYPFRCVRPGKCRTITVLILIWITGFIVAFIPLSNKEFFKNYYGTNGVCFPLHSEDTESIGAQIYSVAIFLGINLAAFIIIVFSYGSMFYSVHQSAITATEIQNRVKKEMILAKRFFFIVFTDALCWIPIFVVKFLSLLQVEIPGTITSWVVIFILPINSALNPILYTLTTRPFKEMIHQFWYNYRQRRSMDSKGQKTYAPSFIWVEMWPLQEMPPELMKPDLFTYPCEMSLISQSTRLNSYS
The experiment in a line: Agonist activity at monkey RXFP1 receptor assessed as stimulation of cAMP production incubated for 30 mins by TR-FRET based HTRF assay. Type of series: functional.

Series [8] addresses Relaxin receptor 2 (Mus musculus) (UniProt Q91ZZ5). The experiment in a line: Agonist activity at mouse RXFP2 receptor expressed in HEK293 cells assessed as stimulation of cAMP production incubated for 30 mins by TR-FRET based HTRF assay. Type of series: functional, cell-based.
Series [9] relates to Plasma. The experiment in a line: AUMClast in C57/BL6 mouse plasma at 30 mg/kg, po administered as single dose. Type of series: ADME, organism-based. As to conditions: in vivo.
The nature of series [10]: Initial plasma concentration in C57/BL6 mouse plasma at 3 mg/kg, iv administered as single dose. Format: ADME, organism-based.
Series [11] has as its target T2, Relaxin receptor 1 (Mus musculus). The experiment in a line: Agonist activity at mouse RXFP1 receptor M11 Asp659Gly and Ser660Thr mutant expressed in HEK293 cells assessed as stimulation of cAMP production at 66 uM incubated for 30 mins by TR-FRET based HTRF assay relative to relaxin. Type of series: functional, cell-based. On the set-up: scale not given: the % may be the effect or the level left.

The nature of series [12]: Tmax in C57/BL6 mouse plasma at 30 mg/kg, po administered as single dose. Type of series: ADME, organism-based.
The subject of series [13] is Heart. Nature of the series: AUMClast in C57/BL6 mouse heart at 30 mg/kg, po administered as single dose. Format: ADME, organism-based. As to conditions: in vivo.
The nature of series [14]: Tmax in C57/BL6 mouse heart at 30 mg/kg, po administered as single dose. Type of series: ADME, organism-based.

Sequence of Relaxin receptor 2 (Mus musculus) (Q91ZZ5 whole entry): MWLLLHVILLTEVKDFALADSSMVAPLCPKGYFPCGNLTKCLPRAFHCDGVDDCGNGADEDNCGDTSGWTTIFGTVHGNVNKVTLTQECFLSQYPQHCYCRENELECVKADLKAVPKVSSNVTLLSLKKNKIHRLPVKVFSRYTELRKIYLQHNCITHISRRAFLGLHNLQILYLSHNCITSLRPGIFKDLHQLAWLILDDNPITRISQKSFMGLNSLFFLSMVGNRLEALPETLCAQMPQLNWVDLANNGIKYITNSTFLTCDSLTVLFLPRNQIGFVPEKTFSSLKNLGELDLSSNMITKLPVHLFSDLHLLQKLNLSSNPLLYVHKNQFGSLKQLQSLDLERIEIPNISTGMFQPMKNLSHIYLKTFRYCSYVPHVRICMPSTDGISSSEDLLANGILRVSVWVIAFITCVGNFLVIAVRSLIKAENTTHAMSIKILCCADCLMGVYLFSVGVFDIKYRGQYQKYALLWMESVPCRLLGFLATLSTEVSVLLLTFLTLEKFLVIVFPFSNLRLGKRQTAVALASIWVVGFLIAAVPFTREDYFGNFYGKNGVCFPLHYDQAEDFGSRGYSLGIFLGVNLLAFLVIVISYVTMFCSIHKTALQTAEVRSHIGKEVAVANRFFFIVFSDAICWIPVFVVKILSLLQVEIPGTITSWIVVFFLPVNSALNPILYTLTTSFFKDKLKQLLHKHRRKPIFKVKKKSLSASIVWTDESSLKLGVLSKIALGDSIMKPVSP

As for `CC(C)Oc1ccccc1C(=O)Nc1ccccc1C(=O)Nc1cccc(S(=O)(=O)C(F)(F)F)c1`, the AUMClast in the series on Heart [1] was 28300 hr.hr.ng/ml; with Plasma [5], 3110 hr.hr.ng/ml; with Plasma [9], 2990 hr.hr.ng/ml; with Heart [13], 5780 hr.hr.ng/ml. The outcome in [2] and in series [7] was Active. For the same compound, the highest level in [3] (Cmax) was 306 ng/mL. The outcome in series [4], in series [6] and in series [8] was inactive. The same compound registered a C0 in series [10] of 499 ng/mL. Further, the Activity in series [11] is 44.4%. The Tmax in series [12] is 0.5 h; in series [14] it was 1.5 h.

The term Cmax denotes the highest concentration seen after dosing. The Tmax is the time from dosing to the highest level.
